Data taken from ChEMBL document CHEMBL5233229, “Recent advances in the development of ubiquitin-specific-processing protease 7 (USP7) inhibitors” (Eur J Med Chem, 2020).
One block for each compound: values may come before it.

Assays:
[1] = biological target: T1, Ubiquitin carboxyl-terminal hydrolase 7 (Homo sapiens, UniProt Q93009); test: Inhibition of human USP7 using UbA10 as substrate incubated for 10 mins by TR-FRET assay
HCT-116 = test: Anticancer activity against human HCT-116 cells assessed as cell growth inhibition incubated for 6 days by MTT assay; format: functional; conditions: HCT-116, 144 h, time 6 day, read-out: LD50 (the source's name)
[2] = biological target: T2, Ubiquitin carboxyl-terminal hydrolase 47 (Homo sapiens, UniProt Q96K76); test: Inhibition of USP47 (unknown origin)
T2 sequence (Q96K76 whole entry): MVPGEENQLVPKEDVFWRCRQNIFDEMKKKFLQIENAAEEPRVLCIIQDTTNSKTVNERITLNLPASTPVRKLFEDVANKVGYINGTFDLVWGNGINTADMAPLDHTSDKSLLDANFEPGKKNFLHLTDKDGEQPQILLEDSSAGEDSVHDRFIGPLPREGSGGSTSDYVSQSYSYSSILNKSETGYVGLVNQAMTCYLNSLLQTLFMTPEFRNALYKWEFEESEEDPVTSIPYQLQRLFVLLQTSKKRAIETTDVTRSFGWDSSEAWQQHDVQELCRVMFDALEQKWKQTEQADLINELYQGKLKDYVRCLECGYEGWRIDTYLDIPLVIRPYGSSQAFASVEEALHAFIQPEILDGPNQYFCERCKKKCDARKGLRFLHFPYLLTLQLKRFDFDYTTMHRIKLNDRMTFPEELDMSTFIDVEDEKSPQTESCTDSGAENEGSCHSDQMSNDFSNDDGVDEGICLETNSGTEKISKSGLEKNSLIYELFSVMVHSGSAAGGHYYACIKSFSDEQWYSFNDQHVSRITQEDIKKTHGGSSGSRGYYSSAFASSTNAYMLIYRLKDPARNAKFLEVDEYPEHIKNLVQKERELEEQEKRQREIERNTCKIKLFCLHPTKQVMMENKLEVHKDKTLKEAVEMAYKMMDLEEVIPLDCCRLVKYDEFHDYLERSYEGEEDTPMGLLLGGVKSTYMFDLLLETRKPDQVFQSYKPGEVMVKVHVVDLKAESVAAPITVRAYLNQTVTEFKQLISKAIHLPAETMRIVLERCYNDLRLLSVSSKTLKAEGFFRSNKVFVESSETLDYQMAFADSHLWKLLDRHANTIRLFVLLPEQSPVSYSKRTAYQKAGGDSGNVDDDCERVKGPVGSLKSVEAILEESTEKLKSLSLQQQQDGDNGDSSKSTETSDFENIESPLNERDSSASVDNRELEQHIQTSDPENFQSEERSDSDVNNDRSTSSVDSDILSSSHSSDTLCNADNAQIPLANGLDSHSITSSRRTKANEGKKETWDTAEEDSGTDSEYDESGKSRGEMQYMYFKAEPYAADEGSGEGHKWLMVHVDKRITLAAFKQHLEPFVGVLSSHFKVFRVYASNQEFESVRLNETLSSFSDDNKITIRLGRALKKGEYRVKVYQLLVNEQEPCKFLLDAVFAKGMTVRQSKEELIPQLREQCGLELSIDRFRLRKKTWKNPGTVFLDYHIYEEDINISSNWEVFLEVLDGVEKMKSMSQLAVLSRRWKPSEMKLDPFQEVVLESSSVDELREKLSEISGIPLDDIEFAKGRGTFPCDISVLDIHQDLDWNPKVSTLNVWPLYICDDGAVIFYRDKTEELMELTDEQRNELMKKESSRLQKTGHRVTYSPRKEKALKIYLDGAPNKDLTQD

[3] = biological target: T1, Ubiquitin carboxyl-terminal hydrolase 7; test: Inhibition of USP7 (unknown origin) by Ub-PLA2 assay
[4] = Inhibition of USP2a (unknown origin); set-up: species or system Homo sapiens
[5] = biological target: T1, Ubiquitin carboxyl-terminal hydrolase 7; test: Inhibition of human USP7 using ubiquitin-Rho as substrate incubated for 1 hrs
[6] = biological target: T3, Ubiquitin carboxyl-terminal hydrolase 8 (Homo sapiens, UniProt P40818); test: Inhibition of human USP8 using Ub-AMC as substrate
T3 sequence (P40818 whole entry): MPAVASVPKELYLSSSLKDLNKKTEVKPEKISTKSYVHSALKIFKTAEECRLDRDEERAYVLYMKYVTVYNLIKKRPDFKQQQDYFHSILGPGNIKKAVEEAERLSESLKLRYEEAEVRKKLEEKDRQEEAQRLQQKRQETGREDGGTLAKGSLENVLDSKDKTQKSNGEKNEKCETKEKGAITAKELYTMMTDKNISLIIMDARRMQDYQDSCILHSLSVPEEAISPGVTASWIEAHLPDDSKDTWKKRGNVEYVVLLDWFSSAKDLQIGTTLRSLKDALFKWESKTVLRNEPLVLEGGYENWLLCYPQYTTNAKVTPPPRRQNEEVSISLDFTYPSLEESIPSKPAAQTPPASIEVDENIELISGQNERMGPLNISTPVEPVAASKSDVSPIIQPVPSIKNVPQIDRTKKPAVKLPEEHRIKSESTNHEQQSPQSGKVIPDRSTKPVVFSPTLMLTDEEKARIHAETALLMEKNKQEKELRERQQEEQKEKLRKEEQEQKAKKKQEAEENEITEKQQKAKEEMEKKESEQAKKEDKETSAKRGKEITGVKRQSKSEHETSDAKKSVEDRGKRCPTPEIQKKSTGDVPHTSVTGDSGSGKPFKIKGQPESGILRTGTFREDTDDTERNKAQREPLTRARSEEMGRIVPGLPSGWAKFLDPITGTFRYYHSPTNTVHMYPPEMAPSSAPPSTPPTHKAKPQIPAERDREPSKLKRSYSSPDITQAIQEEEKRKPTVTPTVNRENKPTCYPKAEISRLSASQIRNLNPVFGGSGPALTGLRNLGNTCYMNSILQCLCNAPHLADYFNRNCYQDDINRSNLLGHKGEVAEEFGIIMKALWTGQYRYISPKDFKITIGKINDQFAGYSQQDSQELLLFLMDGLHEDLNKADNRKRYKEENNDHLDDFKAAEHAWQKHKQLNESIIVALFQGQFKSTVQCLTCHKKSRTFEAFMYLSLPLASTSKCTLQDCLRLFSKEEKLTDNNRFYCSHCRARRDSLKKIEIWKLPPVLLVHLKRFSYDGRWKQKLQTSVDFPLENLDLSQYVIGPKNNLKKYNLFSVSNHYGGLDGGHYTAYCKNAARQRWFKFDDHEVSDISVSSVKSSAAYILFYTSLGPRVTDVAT

[7] = biological target: T1, Ubiquitin carboxyl-terminal hydrolase 7; test: Inhibition of human USP7 using Ub-AMC as substrate
[8] = biological target: T1, Ubiquitin carboxyl-terminal hydrolase 7; test: Inhibition of human USP7 using ubiquitin-Rh110 as substrate incubated for 30 mins by Fluorometric plate reader analysis

T1 sequence (Q93009 whole entry): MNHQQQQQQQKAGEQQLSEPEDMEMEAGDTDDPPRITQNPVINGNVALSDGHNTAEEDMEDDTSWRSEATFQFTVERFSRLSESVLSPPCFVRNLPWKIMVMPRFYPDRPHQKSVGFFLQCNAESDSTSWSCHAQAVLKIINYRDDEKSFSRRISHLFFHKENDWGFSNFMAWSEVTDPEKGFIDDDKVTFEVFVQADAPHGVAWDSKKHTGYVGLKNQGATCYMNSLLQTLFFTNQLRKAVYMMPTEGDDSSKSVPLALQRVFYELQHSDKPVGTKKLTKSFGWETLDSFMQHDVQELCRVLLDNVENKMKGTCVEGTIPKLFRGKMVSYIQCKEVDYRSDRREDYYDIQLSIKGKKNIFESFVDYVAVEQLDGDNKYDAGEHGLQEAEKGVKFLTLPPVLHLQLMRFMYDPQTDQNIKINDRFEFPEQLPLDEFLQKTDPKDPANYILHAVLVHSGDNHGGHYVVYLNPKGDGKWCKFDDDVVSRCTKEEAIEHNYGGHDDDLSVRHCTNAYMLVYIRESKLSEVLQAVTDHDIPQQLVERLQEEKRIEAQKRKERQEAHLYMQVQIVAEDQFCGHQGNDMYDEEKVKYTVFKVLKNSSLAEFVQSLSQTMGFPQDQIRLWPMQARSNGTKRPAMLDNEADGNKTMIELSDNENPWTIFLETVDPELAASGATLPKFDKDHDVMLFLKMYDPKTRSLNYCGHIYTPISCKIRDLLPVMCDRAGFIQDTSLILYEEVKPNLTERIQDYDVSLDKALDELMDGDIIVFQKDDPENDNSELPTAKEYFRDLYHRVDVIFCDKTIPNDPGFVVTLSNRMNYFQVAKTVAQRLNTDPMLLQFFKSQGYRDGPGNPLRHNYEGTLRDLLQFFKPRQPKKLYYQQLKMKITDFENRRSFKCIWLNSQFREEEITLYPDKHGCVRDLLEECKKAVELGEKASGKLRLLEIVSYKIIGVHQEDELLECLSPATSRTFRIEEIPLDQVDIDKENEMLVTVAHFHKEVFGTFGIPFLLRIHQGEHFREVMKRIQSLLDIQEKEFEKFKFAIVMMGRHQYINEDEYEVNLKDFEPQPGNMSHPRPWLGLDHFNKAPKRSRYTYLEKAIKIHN

Compound: C[C@H](CC(=O)NCCS(=O)(=O)O)[C@H]1CC[C@H]2[C@@H]3[C@H](O)C[C@@H]4C[C@H](O)CC[C@]4(C)[C@H]3C[C@H](O)[C@]12C
CC50 (HCT-116): > 50 µM

Compound: N#Cc1nc2c(nc1N)-c1ccccc1C2=O
IC50 [2]: > 100 µM

Compound: C[C@H](CC(=O)N1CCOCC1)[C@H]1CC[C@H]2[C@@H]3CC[C@@H]4C[C@H](O)CC[C@]4(C)[C@H]3CC[C@]12C
CC50 (HCT-116): 8.2 µM | IC50 [4]: > 100 µM

Compound: C[C@H](CC(=O)NO)[C@H]1CC[C@H]2[C@@H]3CC[C@@H]4C[C@H](O)CC[C@]4(C)[C@H]3CC[C@]12C
CC50 (HCT-116): 27.8 µM | IC50 [4]: 9.7 µM

Compound: COCCOc1nc2c(nc1C#N)C(=O)c1ccccc1-2
IC50 [2]: > 100 µM

Compound: C[C@H](CC(=O)NCC#N)[C@H]1CC[C@H]2[C@@H]3CC[C@@H]4C[C@H](O)CC[C@]4(C)[C@H]3C[C@H](O)[C@]12C
CC50 (HCT-116): 28 µM | IC50 [4]: 7.4 µM

Compound: N#CNc1nc2c(nc1C#N)C(=O)c1ccccc1-2
IC50 [2]: > 100 µM

Compound: CCO/C(O)=C(\C#N)c1nc2c(nc1C#N)C(=O)c1ccccc1-2
IC50 [6]: > 100 µM | IC50 [7]: > 100 µM

Compound: C[C@H](CC(=O)NCC(=O)O)[C@H]1CC[C@H]2[C@@H]3CC[C@@H]4C[C@H](O)CC[C@]4(C)[C@H]3CC[C@]12C
CC50 (HCT-116): > 100 µM | IC50 [4]: > 50 µM

Compound: N#Cc1nc2c(nc1N1CCC(F)(F)CC1)-c1ccccc1C2=O
IC50 [2]: > 100 µM

Compound: N#Cc1nc2c(nc1C#N)-c1ccc(O)cc1C2=O
IC50 [2]: 66 µM

Compound: C[C@H](CC(N)=O)[C@H]1CC[C@H]2[C@@H]3CC[C@@H]4C[C@H](O)CC[C@]4(C)[C@H]3CC[C@]12C
CC50 (HCT-116): 24.5 µM | IC50 [4]: 27.9 µM

Compound: C[C@H](CC(=O)O)[C@H]1CC[C@H]2[C@@H]3[C@H](O)C[C@@H]4C[C@H](O)CC[C@]4(C)[C@H]3C[C@H](O)[C@]12C
CC50 (HCT-116): > 50 µM

Compound: CC(=O)O[C@@H]1CC[C@@]2(C)[C@H](CC[C@@H]3[C@@H]2CC[C@]2(C)[C@@H]([C@H](C)CC(=O)O)CC[C@@H]32)C1
CC50 (HCT-116): 23.2 µM | IC50 [4]: 5.8 µM

Compound: C[C@H](CC(=O)O)[C@H]1CC[C@H]2[C@@H]3CC[C@@H]4CC(=O)CC[C@]4(C)[C@H]3CC[C@]12C
CC50 (HCT-116): > 50 µM | IC50 [4]: 32 µM

Compound: CCc1cc([N+](=O)[O-])c(Sc2cccc(Cl)c2Cl)s1
IC50 [3]: > 50 µM

Compound: N#Cc1nc2c(nc1C#N)-c1ccccc1C2=O
IC50 [2]: 3.5 µM

Compound: CCCCc1cc([N+](=O)[O-])c(Sc2ccc(Cl)cc2Cl)s1
IC50 [3]: 13.9 µM

Compound: COC(=O)C[C@@H](C)[C@H]1CC[C@H]2[C@@H]3CC[C@@H]4C[C@H](O)CC[C@]4(C)[C@H]3CC[C@]12C
CC50 (HCT-116): 20.5 µM | IC50 [4]: > 50 µM

Results, then the compound that gave them:

IC50 [1]: 9.6 µM
Compound: Nc1ncc(-c2ccccc2)cc1-c1ccc(O)cc1

IC50 [3]: 11.8 µM
Compound: CC(=O)c1cc([N+](=O)[O-])c(Sc2ccc(Cl)cc2)s1

IC50 [3]: 12.9 µM
Compound: CC(=O)c1cc([N+](=O)[O-])c(Sc2ccccc2Cl)s1

IC50 [5]: > 63.3 µM
Compound: CCc1c(-c2ccc(O)cc2)cnc(N)c1-c1cccc(C)c1

IC50 [6]: 0.133 µM | IC50 [7]: 2.55 µM
Compound: N#Cc1nc2c(nc1C#N)-c1cc(Cl)ccc1C2=O

IC50 [5]: 75.6 µM
Compound: CCc1c(-c2ccc(C(=O)N(C)C)cc2)cnc(N)c1-c1ccc(O)cc1

IC50 [2]: > 100 µM
Compound: COc1nc2c(nc1C#N)C(=O)c1ccccc1-2

IC50 [2]: 4.3 µM
Compound: N#Cc1nc2c(nc1C#N)-c1ccc(F)cc1C2=O

IC50 [3]: 7 µM
Compound: CC(=O)c1cc([N+](=O)[O-])c(Sc2cccc(Cl)c2)s1

IC50 [2]: > 100 µM | IC50 [7]: > 100 µM
Compound: N#Cc1nc2c(nc1C#N)C1(OCCO1)c1ccccc1-2

IC50 [1]: > 50 µM
Compound: Nc1ncc(-c2ccc(O)cc2)cc1-c1ccc(O)cc1

IC50 [3]: 20.1 µM
Compound: CC(O)c1cc([N+](=O)[O-])c(Sc2ccc(Cl)cc2Cl)s1 (centres undefined)

IC50 [5]: > 63.3 µM
Compound: CCc1c(-c2ccc(O)cc2)cnc(N)c1-c1ccc(S(C)(=O)=O)cc1

IC50 [3]: 6.5 µM
Compound: CC(=O)c1cc([N+](=O)[O-])c(Sc2ccc(Cl)cc2Cl)s1

IC50 [8]: 0.47 µM
Compound: C[C@@]12CCCc3coc(c31)Cc1cc3c(cc12)C(=O)C(C1=CC(=O)c2cc4c(cc2C1=O)C(=O)c1occ2c1[C@@]4(C)CCC2)=CC3=O

IC50 [6]: > 100 µM | IC50 [7]: > 100 µM
Compound: CCOc1nc2c(nc1C#N)C(=O)c1ccccc1-2

IC50 [1]: 0.61 µM
Compound: CCc1c(-c2ccc(O)cc2)cnc(N)c1-c1ccc2cn[nH]c2c1

IC50 [3]: 6.4 µM
Compound: CC(=O)c1cc([N+](=O)[O-])c(Sc2cc(Cl)cc(Cl)c2)s1
